Consider 18 molecules from Sander's compilation of Henry's law constants (doi:10.1021/je0000266).

Molecules are shown by their SMILES.

The series can be described thus: Henry solubility constant Hcp at 298.15 K (mol/(m3 Pa)). Particulars: reference: Bamford et al. (2000).
Consider `Clc1cc(Cl)c(-c2c(Cl)c(Cl)cc(Cl)c2Cl)c(Cl)c1Cl` [2,2',3,3',4,5',6,6'-octachlorobiphenyl], for which the “Henry solubility constant Hcp” value worked out at 0.01.

For `Clc1cc(Cl)c(-c2c(Cl)c(Cl)cc(Cl)c2Cl)cc1Cl` [2,2',3,4',5,5',6-heptachlorobiphenyl], the “Henry solubility constant Hcp” value stood at 0.016.

On to `Clc1cc(Cl)c(-c2c(Cl)c(Cl)cc(Cl)c2Cl)c(Cl)c1` [2,2',3,4',5,6,6'-heptachlorobiphenyl], for which the “Henry solubility constant Hcp” value worked out at 0.0088.

For `Clc1cc(Cl)c(-c2ccc(Cl)c(Cl)c2Cl)cc1Cl` [2,2',3,4,4',5'-hexachlorobiphenyl], the “Henry solubility constant Hcp” value was 0.022.

For the molecule `Clc1ccc(Cl)c(-c2cccc(Cl)c2Cl)c1` [2,2',3,5'-tetrachlorobiphenyl], the “Henry solubility constant Hcp” value is 0.036.

Consider `Clc1cc(Cl)c(-c2cc(Cl)c(Cl)cc2Cl)cc1Cl` [2,2',4,4',5,5'-hexachlorobiphenyl], for which the “Henry solubility constant Hcp” value stood at 0.019.

Regarding `Clc1cc(Cl)c(-c2cc(Cl)c(Cl)cc2Cl)c(Cl)c1` [2,2',4,4',5,6'-hexachlorobiphenyl], the “Henry solubility constant Hcp” value is 0.013.

As for `Clc1ccc(Cl)c(-c2cc(Cl)c(Cl)cc2Cl)c1` [2,2',4,5,5'-pentachlorobiphenyl], the “Henry solubility constant Hcp” value amounted to 0.024.

As for `Clc1cc(Cl)c(-c2ccccc2Cl)c(Cl)c1` [2,2',4,6-tetrachlorobiphenyl], the “Henry solubility constant Hcp” value came out at 0.016.

Turning to `Clc1ccc(Cl)c(-c2cc(Cl)ccc2Cl)c1` [2,2',5,5'-tetrachlorobiphenyl], the “Henry solubility constant Hcp” value came out at 0.032.

Consider `Clc1ccc(Cl)c(-c2ccccc2Cl)c1` [2,2',5-trichlorobiphenyl], for which the “Henry solubility constant Hcp” value was found to be 0.039.

Consider `Clc1ccc(-c2cc(Cl)c(Cl)cc2Cl)cc1Cl` [2,3',4,4',5-pentachlorobiphenyl], for which the “Henry solubility constant Hcp” value was 0.028.

Consider `Clc1ccc(-c2ccc(Cl)c(Cl)c2)c(Cl)c1` [2,3',4,4'-tetrachlorobiphenyl], for which the “Henry solubility constant Hcp” value amounted to 0.027.

`Clc1ccc(-c2ccc(Cl)c(Cl)c2Cl)cc1Cl` [2,3,3',4,4'-pentachlorobiphenyl]: the “Henry solubility constant Hcp” value was determined as 0.03.

In the case of `Clc1ccc(-c2ccccc2Cl)cc1` [2,4'-dichlorobiphenyl], the “Henry solubility constant Hcp” value was determined as 0.04.

Regarding `Clc1ccccc1-c1ccccc1` [2-chlorobiphenyl], the “Henry solubility constant Hcp” value came out at 0.049.

For the molecule `Clc1ccc(-c2cc(Cl)c(Cl)c(Cl)c2)cc1Cl` [3,3',4,4',5-pentachlorobiphenyl], the “Henry solubility constant Hcp” value turned out to be 0.048.

Turning to `Clc1ccc(-c2ccc(Cl)c(Cl)c2)cc1Cl` [3,3',4,4'-tetrachlorobiphenyl], the “Henry solubility constant Hcp” value is 0.062.
